Measurements taken from PMC11125018 (Pharmaceuticals, 2024).
Values joined by “and” are separate entries in the source; they are usually repeats but may differ in a detail not shown here. Equal entries are not always repeated. Where two headings read alike, the source gives them in different places.

What was measured:
CB1 = settings: cAMP assay, cited from earlier work; for EC50: read-out: agonist EC50
CB2 receptor = settings: in vitro studies; cited from earlier work
CB1 receptor [1] = target: T1, CB1 receptor (Homo sapiens, UniProt P21554); assay: PathHunter β-arrestin recruitment assay, agonist mode, CB1 expressing CHO-K1 cell line; format: cell-based; settings: for EC50: EC50 (nM), agonist effect, 90 min incubation, parentheses = SD of three independent measurements; for Hill Slope: four-parameter log-logistic fit, three measurements; for Hill Slope / Maximum RE (%): parentheses = SD; for Maximum RE (%): 100% normalized to maximum (±)-CP 55,940 stimulation, 0% to vehicle; for classification as partial agonist of the CB1 cannabinoid receptor: relative to full agonist CP 55940; for agonist property: tested up to 5 µM
T1 construct: host or cells: CHO-K1
T1 sequence (P21554 whole entry): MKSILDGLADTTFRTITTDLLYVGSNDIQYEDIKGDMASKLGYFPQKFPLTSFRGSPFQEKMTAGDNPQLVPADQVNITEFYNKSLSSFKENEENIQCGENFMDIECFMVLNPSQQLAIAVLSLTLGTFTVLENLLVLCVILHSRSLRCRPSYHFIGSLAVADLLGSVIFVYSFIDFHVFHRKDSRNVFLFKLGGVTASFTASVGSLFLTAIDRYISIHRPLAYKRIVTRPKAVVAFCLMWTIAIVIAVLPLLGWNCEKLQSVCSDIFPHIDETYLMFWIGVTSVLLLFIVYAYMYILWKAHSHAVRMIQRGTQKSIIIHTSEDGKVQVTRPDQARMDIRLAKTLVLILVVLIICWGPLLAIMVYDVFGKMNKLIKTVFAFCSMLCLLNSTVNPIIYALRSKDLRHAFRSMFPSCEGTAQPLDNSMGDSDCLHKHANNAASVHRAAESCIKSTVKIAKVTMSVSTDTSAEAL
Procedure: (§1) For agonist and antagonist assays, PathHunter® CHO-K1 CNR1 (Eurofins DiscoverX, Fremont, CA, USA, Catalog number: 93-0959C2) β-Arrestin cells were expanded from freezer stocks according to standard procedures provided by Eurofins. The cell line manual was followed for cell growth (including cell culture media and supplementation, the handling and preparation of cells, etc.), test procedure, and signal detection. Cells were seeded in a total volume of 20 µL (5000 cells) into white-walled, 384-well microplates and incubated at 37 °C overnight prior to testing. After preparing stock acetonitrile solution at 1 mg/mL concentration of ligand, compound intermediate concentrations were achieved by a 10-point series of 3-fold compound serial dilutions in a compound dilution buffer in a separate dilution plate.
For the agonist assay, the concentration of each dilution was prepared at 5X of the final screening concentration. An amount of 5 µL of samples was added to cells (highest final concentration = 5 µM, maximum acetonitrile = 0.2 v/v%) and incubated at 37 °C for 90 min (5% CO2). To generate the assay signal, 12.5 µL of working detection solution was added to the cells, which were then left to incubate for an hour at room temperature in the dark. The signal detection was carried out using a PerkinElmer Envision instrument to measure chemiluminescence.

CB1 receptor [2] = target: T1, CB1 receptor; assay: cell-based; format: cell-based; settings: for Hill Slope / Maximum RE (%): antagonist mode, parentheses = SD; for Hill Slope: four-parameter log-logistic fit, three measurements; for Maximum RE (%): 100% normalized to maximum AM-281, 0% to vehicle
Procedure: as §1
For antagonist determination, cells were pre-incubated with THCV isomers, followed by agonist challenge at the EC80 concentration. Each THCV dilution was prepared at a 10X concentration relative to the intended final concentrations for screening. An amount of 2.5 µL of these samples were introduced into the cells, achieving a maximum final concentration of 5 µM for THCV and ~0.2 v/v% for acetonitrile. The assay plate was incubated at 37 °C for 30 min in an atmosphere containing 5% CO2. […] Cells were incubated for 90 min at 37 °C and 5% CO2. To generate the assay signal, 12.5 µL of working detection solution was added to the cells, which were then left to incubate for an hour at room temperature in the dark. The signal detection was carried out using a PerkinElmer Envision (Waltham, MA, USA) instrument to measure chemiluminescence.

Row | SMILES | EC50 (CB1) | CB2 selectivity (CB2 receptor) | EC50 (CB1 receptor [1]) | Hill Slope (CB1 receptor [1]; agonist mode) | Maximum RE (%) (CB1 receptor [1]; agonist mode) | classification as partial agonist of the CB1 cannabinoid receptor (CB1 receptor [1]) | Hill Slope (CB1 receptor [2]) | Maximum RE (%) (CB1 receptor [2]) | agonist property (CB1 receptor [1]; agonist mode) | IC50 (CB1 receptor [2]; IC50 (nM)) | also measured
1 | CCCCCc1cc(O)c2c(c1)OC(C)(C)[C@@H]1CC[C@@H](C)C[C@@H]21 [9R-HHC, hexahydrocannabinol] | 0.0034 µM | 1.2 times | 53.4 nM and 53.5 nM | 0.56 (0.07) | 41.51% and 41.51 (1.70) % | moderate | – | – | – | – | fold higher agonist potency than 9S-HHC (CB1): approximately 16 fold
2 | CCCCCc1cc(O)c2c(c1)OC(C)(C)[C@@H]1CC[C@H](C)C[C@@H]21 [9S-HHC, hexahydrocannabinol] | 0.057 µM | 1.7 times | 624 nM | 0.95 (0.08) | 20.58% and 20.58 (0.80) % | weak | – | – | – | – | –
3 | Cc1c(C(=O)NN2CCOCC2)nn(-c2ccc(Cl)cc2Cl)c1-c1ccc(I)cc1 [AM-281, reference compound] | – | – | – | – | – | – | 0.81 (0.07) | 101.90 (1.63) % | – | – | IC50 (CB1 receptor [2]; read-out: IC50): 17.7 nM
4 | CCCCCCC(C)(C)c1ccc([C@@H]2C[C@H](O)CC[C@H]2CCCO)c(O)c1 [CP 55940, reference compound] | – | – | – | 0.90 (0.10) | 105.50 (3.34) % | – | – | – | – | – | –
5 | CCCc1cc(O)c2c(c1)OC(C)(C)[C@@H]1CC=C(C)C[C@@H]21 [∆8-THCV, tetrahydrocannabivarin] | – | – | – | – | – | – | 1.37 (0.09) | 97.40 (1.16) % | failed to show any significant agonist property | 120 nM | –
6 | CCCc1cc(O)c2c(c1)OC(C)(C)[C@@H]1CCC(C)=C[C@@H]21 [∆9-THCV, tetrahydrocannabivarin] | – | – | – | – | – | – | 1.38 (0.18) | 96.46 (2.20) % | failed to show any significant agonist property | 52.4 nM | Emax (CB1 receptor [1]; CHO-K1, agonist mode, up to 5 µM, insignificant increase from baseline): 1.19%; fold less potent antagonist than AM-281 (CB1 receptor [2]): ~ 3 ×; fold less potent antagonist than rimonabant (CB1 receptor [2]): ~ 45 ×
